This is an account of results in publication PMC9671962 (Communications Biology, 2022).

In one data set the test system is COG-N-440x. The data set can be described thus: Pre-clinical efficacy study, COG-N-440x PDX. The class given is in vivo. The note with it: single mouse. As to the method:
Patient demographics and genetic characteristics are listed in (Supplementary Tables 1, 2)[17]. The maximum tolerated dose (MTD) was determined to be 36 MBq/kg administered by intra-peritoneal injection twice weekly for a total of 4 dose fractions and this fractionated regimen was used in all studies (Supplementary Fig. 1)[18],[19]. […] Nine of 11 PDX models were MYCN amplified (Fig. 1b), which is a hallmark of high-risk neuroblastoma. Tumor response was measured as the maximum percent decrease in tumor volume after treatment and event-free survival (EFS) was measured by the area over the curve method with tumor events pre-defined by tumor growth exceeding 2 cm[3],[18].
The use of 2 mice per arm was based on the previously reported statistical analysis. PDX tumors were implanted into the right flank of 5 to 6-weeks old female mice weighing about 20–25 grams. […] Two additional dose levels of 12, and 24 MBq/kg/fraction were assessed in a subset of models and were administered as stated above. In two models treated at the 24 MBq/kg/fraction dose level we re-challenged tumor response at the time of tumor progression with an additional 4 dose fractions at 24 MBq/kg/fraction given twice weekly. Doses were prepared in 500 µL total volume. An equal volume of saline was used for the vehicle group. Tumors were measured using a digital caliper at the initiation of the study and two times per week during the treatment period. Tumor volumes were calculated as volume = ([…]∗0.5236)/1000. Weights were obtained twice weekly and mice were monitored daily for signs of toxicity. […] Tumor response was assessed by best response defined as greatest reduction in tumor volume following the last dose and is presented as percent change in tumor volume. Event-free survival was determined by area over the curve method that calculates the time to tumor event, which was defined as tumors reaching or exceeding a size ≥ 2 cm^3.
Animal studies were performed in female mice due to the lack of sex-related differences for [^211At]PTT tolerability from initial dose response studies performed in female and male mice. Female mice were chosen due to their underlying behavior towards other study subjects that reduced nonstudy-related causes for decreased wellness. Pre-clinical efficacy studies were performed through “single mouse testing” to more closely recapitulate a clinical trial. […] Number size for treatment groups was determined by model tumor growth reproducibility, which was previously shown to have less than 5% normal variation with at least two animals. Statistical tests for tumor response and event-free survival (EFS) were performed as a grouped analysis that included all tumor models treated at each respective dose level (n = 2 per model per dose level). Statistical differences between treatment groups for tumor response was performed by paired-model T-test that compared reduction in tumor volume for the 36 MBq/kg dose level vs. 24 MBq/kg or 12 MBq/kg. Event free survival was measured by area over the curve method to quantify time to event, which was set as tumor growth exceeding 2 cm[3],[19]. Differences in EFS were tested across all treated models for each respective dose level, and against untreated controls, by paired-model ANOVA analysis. Associations of drug target expression and response were performed by linear regression analysis of EFS and PARP1 mRNA expression. Genetic signatures were visually presented as a function of EFS and no statistical tests were applied. Blood and marrow toxicity studies were performed with n = 5 sample sizes and powered to detect >20% differences between untreated controls and treated animals. Results were tested for significance by one-way ANOVA comparison from untreated controls. Marrow colony formation assays were performed in replicates of 2 for each mouse subject, dependent on marrow isolation, and all replicates are included in final analyses. […]

The subject of data set [1] is marrow progenitor cells (GEMM, GM). The data set can be described thus: Marrow toxicity by marrow progenitor colony formation assay. The class given is in vivo, CB57/BL6 mice. As to the method: Toxicity studies were done in nontumor bearing CB-17 SCID mice (Taconic Biosciences). […] Each arm had n = 10 mice (5 male, 5 female mice). […] The vehicle group received an equal volume of saline (placebo). Weights were obtained twice weekly and mice were monitored daily for signs of toxicity. […] On target hematological and marrow toxicity which was evaluated by complete blood counts and marrow colony formation assay. An additional study was performed under identical conditions to evaluate additive dose effects. […] Each treatment group was composed of equal numbers of male and female mice to rule out gender-specific effects (n = 4 per treatment group per time point). Mice were followed for signs of acute toxicity for 2 weeks and 4 weeks before euthanasia. An additional group (n = 4) treated at 36 MBq/kg was euthanized after 72 h to assess early signs of toxicity by colony formation assays. This time course was chosen to best capture the nadir of bone marrow suppression. After euthanasia, blood was collected and femurs were dissected and processed for histopathology and bone marrow evaluation.
After euthanasia, mouse hind limbs were dissected as previously described for bone and marrow isolation. The other hind limb was processed for bone marrow via centrifugation. Bone marrow pellets were resuspended in 1 X RBC Lysis Buffer (BioLegend, San Diego, CA) and rocked on a tilt-table for 5 minutes. Bone marrow cell pellet was isolated by centrifugation at 13,000 RPM on a tabletop centrifuge for 1 minute. Cells were resuspended in IMDM with 2% FBS (Gibco, ThermoFisher Scientific, Grand Island, New York) and counted on a Countess II Automated Cell Counter (ThermoFisher Scientific, Grand Island, NY).
Colony formation assays were performed per manufacturer’s protocol. In brief, 1.8 ×10^5 bone marrow cells suspended in 300 µL IMDM with 2% FBS were combined with 3 mL of Mouse Methylcellulose Complete Media (R&D Systems Inc, Minneapolis, MN). Gel mixture was syringe-pipetted in duplicate to lids of 6 cm culture dishes and housed with a 6 cm sterile water dish within a 25 cm culture dish. Cultures were incubated at 37 °C for 8 days prior to analysis on a microscope. Colonies were counted by one individual per manufacturer’s recommended protocol. Of note, at least 30 cells were required to call a colony positive.

Where [2] appears, read: 12 MBq/kg/fraction x 4 fractions.
Where [3] appears, read: 24 MBq/kg/fraction x 4 fractions.
Where [4] appears, read: 36 MBq/kg/fraction x 4 fractions.
Where [5] appears, read: 4 wk after 2 dose fractions at 36 MBq/kg/fraction.
Where [6] appears, read: 36 MBq/kg x 4 dose fractions, 72 hours post-treatment, replicate.
The mark [7] stands for this setting: 48 MBq/kg x 4 dose fractions, 72 hours post-treatment, replicate.
Setting [8] is: 60 MBq/kg x 4 dose fractions, 72 hours post-treatment, replicate.
The mark [9] stands for this setting: dose escalation 36, 48, 60 MBq/kg x 4 fractions.

“And” between values parts separate entries of the source, which are not always exact repeats. Equal values may be shown once.

For the compound `O=C1NCCn2c(-c3ccc([211At])cc3)nc3cccc1c32` [[^211At]PTT, Astatine-211-parthanatine], the “EFS by AOC method” value in the data set on COG-N-440x (setting [2]) is 28.3679 days and 26.6227 days; with COG-N-440x (setting [3]) it was 50.2168 days and 42.5399 days; in the data set on COG-N-440x (setting [4]), 78.8444 days and 65.1924 days. For the same compound, the “Tumor response (% growth from study initiation at ~ 200 mm3)” value in the data set with COG-N-440x (setting [2]) was -72.727% and -75.758%; in the data set with COG-N-440x (setting [3]), -95.833% and -100%; in the data set with COG-N-440x (setting [4]) it was -100%. Besides, in data set [1] (3 dose fractions at 36 MBq/kg), the “time by which marrow recovery stabilized, GEMM and GM progenitor cells” value is recorded as ≤ 2 weeks. Also, the “GEMM (CFU)” value in data set [1] (setting [5]) was 4 CFU and 7.5 CFU and 6 CFU and 5 CFU; in data set [1] (setting [6]), 7 CFU and 3 CFU and 2 CFU and 8 CFU and 14 CFU and 5 CFU and 9 CFU; in data set [1] (setting [7]), 12 CFU and 5 CFU and 7 CFU and 3 CFU and 6 CFU; in data set [1] (setting [8]) it was 2 CFU and 3 CFU and 8 CFU and 7 CFU and 6 CFU and 4 CFU; in data set [1] (72 hrs after 2 dose fractions at 36 MBq/kg/fraction), 4 CFU and 6 CFU and 3 CFU and 5 CFU and 4.5 CFU. Also, the “GM (CFU)” value in data set [1] (setting [5]) was 22 CFU and 36.5 CFU and 33 CFU and 24 CFU and 38 CFU; in data set [1] (setting [6]) it was 15 CFU and 10 CFU and 23 CFU and 13 CFU and 9 CFU; in data set [1] (setting [7]), 1 CFU and 5 CFU and 2 CFU and 12 CFU and 6 CFU and 7 CFU; in data set [1] (setting [8]) it was 5 CFU and 8 CFU and 7 CFU and 4 CFU. For the same compound, the “colony formation of early marrow progenitor cells (GEMM)” value in data set [1] (setting [9]) was “reduced only at the highest dose level evaluated (60 MBq/kg)”. Moreover, in data set [1] (setting [9]), the “colony formation of granulocyte and megakaryocyte progenitors” value was “reduction in colony formation at all dose levels evaluated”. Besides, the “time of full recovery of colony formation” value in data set [1] (post treatment, 3 dose fractions at 36 MBq/kg) was 4 weeks.
